Activity and Time data for two compounds are collected here from ChEMBL document CHEMBL4715875, “Evaluation of the in Vivo Aphrodisiac Activity of a Cyclotide Extract from Hybanthus enneaspermus” (2020).

Positions of bridges follow the written chain, without caps; N, C: chain ends. Residues, ends and D or L forms follow the SMILES beside them.

Common to all, as to format: functional
Assay [1] concerns Rattus norvegicus. As to the kind of experiment: Induction of libido-enhancing activity in Wistar rat assessed as number of mount at 5 mg/kg, po pre-treated for 30 mins followed by female rat introduction and measured up to 3 hrs (reference value: 3.9 +/- 1.2). The following applies: time hrs <=3.5.
In assay [2] the test system is Rattus norvegicus. As to the kind of experiment: Induction of libido-enhancing activity in Wistar rat assessed as mount frequency at 5 mg/kg, po pre-treated for 30 mins followed by female rat introduction and measured up to 3 hrs (reference value: 5.8 +/- 2.1). The settings on record: time min <=210.
Assay [3] concerns Rattus norvegicus. As to the kind of experiment: Induction of libido-enhancing activity in Wistar rat assessed as intromission latency time at 5 mg/kg, po pre-treated for 30 mins followed by female rat introduction and measured up to 3 hrs (reference value: 270 +/- 68 sec). The settings on record: time min <=210.
In assay [4] the test system is Rattus norvegicus. As to the kind of experiment: Induction of libido-enhancing activity in Wistar rat assessed as number of intromission at 5 mg/kg, po pre-treated for 30 mins followed by female rat introduction and measured up to 2 hrs (reference value: 76 +/- 11). The settings on record: time hrs <=2.5.
Assay [5] concerns Rattus norvegicus. As to the kind of experiment: Induction of libido-enhancing activity in Wistar rat assessed as number of intromission at 5 mg/kg, po pre-treated for 30 mins followed by female rat introduction and measured up to 1 hr (reference value: 63 +/- 7.7). The settings on record: time hrs <=1.5.
Assay [6] deals with Rattus norvegicus. As to the kind of experiment: Induction of libido-enhancing activity in Wistar rat assessed as first behavior latency time at 5 mg/kg, po pre-treated for 30 mins followed by female rat introduction and measured up to 3 hrs (reference value: 200 +/- 40 sec). The following applies: time min <=210.
For assay [7], the system named is Rattus norvegicus. As to the kind of experiment: Induction of libido-enhancing activity in Wistar rat assessed as number of ejaculations at 5 mg/kg, po pre-treated for 30 mins followed by female rat introduction (reference value: 5.5 +/- 0.6). The settings on record: 0.5 h.
The test system of assay [8] is Rattus norvegicus. As to the kind of experiment: Induction of libido-enhancing activity in Wistar rat assessed as number of mount at 5 mg/kg, po pre-treated for 30 mins followed by female rat introduction and measured up to 2 hrs (reference value: 9.1 +/- 3). The following applies: time hrs <=2.5.
The subject of assay [9] is Rattus norvegicus. As to the kind of experiment: Induction of libido-enhancing activity in Wistar rat assessed as number of intromission at 5 mg/kg, po pre-treated for 30 mins followed by female rat introduction (reference value: 170 +/- 32). The following applies: 0.5 h.
The test system of assay [10] is Rattus norvegicus. As to the kind of experiment: Induction of libido-enhancing activity in Wistar rat assessed as intromission frequency at 5 mg/kg, po pre-treated for 30 mins followed by female rat introduction and measured up to 3 hrs (reference value: 35 +/- 5). The following applies: time min <=210.
Assay [11] deals with Rattus norvegicus. As to the kind of experiment: Induction of libido-enhancing activity in Wistar rat assessed as number of mount at 5 mg/kg, po pre-treated for 30 mins followed by female rat introduction and measured up to 1 hr (reference value: 16 +/- 6.9). The settings on record: time hrs <=1.5.
Assay [12] relates to Rattus norvegicus. As to the kind of experiment: Induction of libido-enhancing activity in Wistar rat assessed as intromission ratio at 5 mg/kg, po pre-treated for 30 mins followed by female rat introduction and measured up to 3 hrs (reference value: 86 +/- 4.1%). The following applies: time min <=210.
The subject of assay [13] is Rattus norvegicus. As to the kind of experiment: Induction of libido-enhancing activity in Wistar rat assessed as number of ejaculations at 5 mg/kg, po pre-treated for 30 mins followed by female rat introduction and measured up to 3 hrs (reference value: 1.2 +/- 0.3). The settings on record: time hrs <=3.5.
Assay [14] concerns Rattus norvegicus. As to the kind of experiment: Induction of libido-enhancing activity in Wistar rat assessed as number of ejaculations at 5 mg/kg, po pre-treated for 30 mins followed by female rat introduction and measured up to 1 hr (reference value: 2.2 +/- 0.4). The settings on record: time hrs <=1.5.
Assay [15] concerns Rattus norvegicus. As to the kind of experiment: Induction of libido-enhancing activity in Wistar rat assessed as copulatory plugs at 5 mg/kg, po pre-treated for 30 mins followed by female rat introduction and measured up to 3 hrs (reference value: 4.2 +/- 0.6 sec). The following applies: time min <=210.
The test system of assay [16] is Rattus norvegicus. As to the kind of experiment: Induction of libido-enhancing activity in Wistar rat assessed as ejaculation latency latency time at 5 mg/kg, po pre-treated for 30 mins followed by female rat introduction and measured up to 3 hrs (reference value: 1300 +/- 320 sec). The settings on record: time min <=210.
The subject of assay [17] is Rattus norvegicus. As to the kind of experiment: Induction of libido-enhancing activity in Wistar rat assessed as ejaculation post interval time at 5 mg/kg, po pre-treated for 30 mins followed by female rat introduction and measured up to 3 hrs (reference value: 760 +/- 50 sec). The settings on record: time min <=210.
For assay [18], the system named is Rattus norvegicus. As to the kind of experiment: Induction of libido-enhancing activity in Wistar rat assessed as number of intromission at 5 mg/kg, po pre-treated for 30 mins followed by female rat introduction and measured up to 3 hrs (reference value: 49 +/- 8.5). The settings on record: time hrs <=3.5.
Assay [19] concerns Rattus norvegicus. As to the kind of experiment: Induction of libido-enhancing activity in Wistar rat assessed as number of ejaculations at 5 mg/kg, po pre-treated for 30 mins followed by female rat introduction and measured up to 2 hrs (reference value: 2.2 +/- 0.3). The settings on record: time hrs <=2.5.
The test system of assay [20] is Rattus norvegicus. As to the kind of experiment: Induction of libido-enhancing activity in Wistar rat assessed as total number of mount at 5 mg/kg, po pre-treated for 30 mins followed by female rat introduction (reference value: 3.9 +/- 1.2). The following applies: 0.5 h.

For the compound `CC[C@H](C)[C@@H]1NC(=O)[C@H](C)NC(=O)[C@H](C)NC(=O)[C@H]([C@@H](C)O)NC(=O)[C@H](Cc2ccccc2)NC(=O)[C@@H]2CSSC[C@@H](C(=O)N[C@@H](Cc3ccc(O)cc3)C(=O)N[C@@H](CCCCN)C(=O)N[C@@H](CC(N)=O)C(=O)O)NC(=O)[C@H](C(C)C)NC(=O)[C@H](CCCCN)NC(=O)[C@H](CO)NC(=O)[C@H](CCCCN)NC(=O)[C@@H]3CSSC[C@H](NC(=O)[C@H](CO)NC(=O)[C@H](CCC(=O)O)NC(=O)CNC(=O)[C@@H](NC(=O)[C@@H]4CCCN4C(=O)[C@H](Cc4ccccc4)NC(=O)CN)CSSC[C@H](NC(=O)CNC1=O)C(=O)N[C@@H](CO)C(=O)N3)C(=O)N[C@@H](C(C)C)C(=O)N[C@@H](Cc1ccc(O)cc1)C(=O)N[C@@H]([C@@H](C)CC)C(=O)N1CCC[C@H]1C(=O)N2` (H-GFPCGESCVYIPCFTAAIGCSCKSKVCYKN-OH; disulfide 4-20, 8-22, 13-27), the Activity in [1] is 9.7; in assay [2], 3.1; in [4] it was 67; in assay [5], 69; in [7], 6.5; in assay [8], 5.8. In addition, the Activity in assay [9] was determined as 180; in [10], 28; in assay [11], 3.2; in [12], 91%; in assay [13] it was 2; in assay [14] it was 1.5. Further, the Activity came to 5.5 in assay [15], 44 in [18], 3 in assay [19] and 19 in assay [20]. Also, the Time is listed as 78 s in [3], 76 s in assay [6], 1000 s in assay [16] and 690 s in assay [17].

As to `CC(=O)CC(O)(CC(C)=O)C(C)=O.CCCc1nn(C)c2c(=O)nc(-c3cc(S(=O)(=O)N4CCN(C)CC4)ccc3OCC)[nH]c12`, the Activity is 2.3 in assay [1]; 4.7 in [2]; 63 in [4]; 65 in [5]; 7.7 in [7]; 6.7 in assay [8]. Besides, the Activity in [9] is reported as 180; in assay [10] it was 23; in assay [11], 8.3; in assay [12] it was 85%; in assay [13], 2.2; in assay [14], 2. The Activity in [15] is 6; in assay [18], 38; in assay [19], 2.8; in [20] it was 26. Further, the Time is 96 s in [3], 96 s in assay [6], 940 s in assay [16] and 860 s in assay [17].
